From patent US10273544B2, “Methods for predicting likelihood of responding to treatment” (Dana-Farber Cancer Institute, Inc., priority 2010, dated 2019)

Key:
SLCO2B1-312Arg = target: T1, SLCO2B1-312Arg (Homo sapiens, UniProt O94956); assay: DHEAS uptake assay in LNCaP cells transfected with SLCO2B1-312Arg; settings: read-out: best-fit Km for DHEAS uptake; SLCO2B1-312Arg variant, nonlinear regression
T1 sequence (O94956 1-709 R312Q): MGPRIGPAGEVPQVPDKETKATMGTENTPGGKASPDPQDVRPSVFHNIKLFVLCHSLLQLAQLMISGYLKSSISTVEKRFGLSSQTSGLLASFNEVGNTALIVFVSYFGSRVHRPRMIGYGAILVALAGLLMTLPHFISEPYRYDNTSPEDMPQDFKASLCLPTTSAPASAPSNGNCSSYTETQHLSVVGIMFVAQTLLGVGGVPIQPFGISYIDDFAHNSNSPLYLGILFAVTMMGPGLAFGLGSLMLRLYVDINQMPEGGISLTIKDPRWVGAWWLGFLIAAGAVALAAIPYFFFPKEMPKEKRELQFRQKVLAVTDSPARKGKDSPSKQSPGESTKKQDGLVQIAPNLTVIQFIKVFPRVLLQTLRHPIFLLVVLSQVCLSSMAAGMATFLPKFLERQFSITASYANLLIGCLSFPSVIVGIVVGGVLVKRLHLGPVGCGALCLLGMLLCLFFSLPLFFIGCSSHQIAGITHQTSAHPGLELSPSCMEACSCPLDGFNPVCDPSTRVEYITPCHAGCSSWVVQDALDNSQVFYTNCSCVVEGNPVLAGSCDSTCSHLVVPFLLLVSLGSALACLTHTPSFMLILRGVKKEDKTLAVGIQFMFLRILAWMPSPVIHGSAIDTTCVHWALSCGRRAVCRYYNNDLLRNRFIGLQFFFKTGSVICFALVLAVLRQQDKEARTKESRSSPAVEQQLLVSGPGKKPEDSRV
Source text: (§1) Two full-length SLCO2B1 cDNAs, SLCO2B1-312Gln (having a G at the position 935) and SLCO2B1-312Arg (having an A at position 935), were cloned into the pCMV6-XL4 vector (OriGene Technologies, Rockville, Md.). The SLCO2B1 935G>A nucleotide exchange was introduced into the cDNA using the QuikChange Site-Directed Mutagenesis kit (Stratagene, La Jolla, Calif.). Primers used for the mutagenesis were 5′-[…]-3′ (SEQ ID NO:1) and 5′-[…]-3′ (SEQ ID NO:2) (underlined sequences encode 312Arg).
(§2) LNCaP cells were maintained in RPMI 1640 supplemented with 10% fetal bovine serum (FBS). Twenty-four hours before transfection, 2×10^5 cells were seeded in 12-well plates using Phenol-Red free RPMI 1640 supplemented with 10% charcoal-stripped FBS. LNCaP cells were transiently transfected with pCMV-SLCO2B1-312Gln, pCMV-SLCO2B1-312Arg, or pCMV6-XL4 empty vector using Lipofectamine^2000 according to the manufacturer's instructions.
(§3) The enzyme immunoassay test is based on the competition that occurs between an unlabeled antigen (present in standards, control and samples) and an enzyme-labeled antigen (conjugate) for a limited number of antibody binding sites on the microwell plate. The sensitivity of the kit is 5 ng/ml.

AR = AR expression by quantitative RT-PCR; format: cell-based; settings: LNCaP and LAPC4 cell lines
Description: (§4) Total RNA was isolated from cells using TRIzol reagent (Invitrogen, Carlsbad, Calif.) and then converted to cDNA using High Capacity cDNA Reverse Transcription kit (Applied Biosystems, Foster City, Calif.). The expression levels of SLCO2B1 and GAPDH were measured using a standard TaqMan PCR kit protocol. Experiments were carried out in triplicate for each data point. Real-time PCR primers and probe sets were inventoried products of Applied Biosystem (Assay ID: Hs00200670_m1 and Hs02758991_g1).
(§5) The expression levels of AR and PSA were measured using a standard TaqMan PCR kit protocol (Hs02576345_m1 and Hs00171172_m1) as described in Example 3.

LNCaP cells [1] = assay: Cell proliferation, WST-1 assay, LNCaP; format: cell-based; settings: 100 μM DHEAS, wild type LNCaP, androgen-depleted medium
Description: Cell proliferation was determined using a WST-1 kit (Roche, Indianapolis, Ind.). […] Tetrazolium salt cell proliferation assay then was carried out at different days after transfection, following the manufacturer's instructions.

SLCO2B1-312Gln = target: T2, SLCO2B1-312Gln (Homo sapiens, UniProt O94956, R312Q); assay: DHEAS uptake assay in LNCaP cells transfected with SLCO2B1-312Gln; settings: read-out: best-fit Km for DHEAS uptake; SLCO2B1-312Gln variant, nonlinear regression
T2 sequence (O94956 1-709 R312Q): T1 sequence (O94956 1-709 R312Q)
Source text: as §1, §2, §3

PSA = assay: AR mediated PSA expression by quantitative RT-PCR; format: cell-based
Description: as §4, §5

LNCaP cells [2] = assay: DHEAS uptake assay in LNCaP cells (mock transfected; transfected cells overall); format: cell-based
Description: The sensitivity of the kit is 5 ng/ml. […] Samples were tested in triplicate.

## C[C@]12CC[C@H](OS(=O)(=O)O)CC1=CC[C@@H]1[C@@H]2CC[C@]2(C)C(=O)CC[C@@H]12 [DHEAS, sulfated dehydroepiandrosterone]
SLCO2B1-312Arg
  Km: 13.7 µM
AR
  effect of DHEAS exposure on AR mRNA levels: increased AR mRNA levels
LNCaP cells [1]
  increase of growth rate: about 1.4 fold
SLCO2B1-312Gln
  Km: 17.7 µM
PSA; 100 μM DHEAS, LAPC-4 cells
  up-regulation of PSA expression, SLCO2B1-Gln cells compared to SLCO2B1-Arg cells: 1.48 fold
PSA; wild type LNCaP and LAPC-4 cell lines and cells transfected with SLCO2B1
  effect of increasing DHEAS level on PSA expression: up-regulated PSA expression
LNCaP cells [2]; 100 μM DHEAS, pCMV6-XL4 vector (mock) transfected LNCaP cells
  uptake of DHEAS: 51.66±7.44 pmol/mg protein
LNCaP cells [2]; 100 μM DHEAS, various transfected LNCaP cells
  incubation time at which DHEAS uptake reached maximum levels: 1 h
LNCaP cells [2]; SLCO2B1 variant transfected LNCaP cells
  DHEAS concentration at which uptake saturation is reached: 60 to 100 µM
